The source made the active and inactive calls.
What was measured:
[1] = test system: Streptococcus sp. 'group A'; test: Streptococcus pyogenes SK(-)GAS viability under kanamycin – luminescence, BacTiterGlo, confirmation, counter-screen for streptokinase expression inhibitor project, dose response (AID 1900); format: functional, organism-based
[2] = molecular target: T1, Streptokinase A (Streptococcus pyogenes serotype M1, UniProt P10520); test: viability-normalized secreted streptokinase activity reduction – plasminogen activation absorbance, OD405, dose response (AID 1914); format: functional, Streptococcus pyogenes M1 GAS;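 note: secreted streptokinase activity via plasminogen activation per viability signal from cell pellet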
T1 sequence (P10520 whole entry): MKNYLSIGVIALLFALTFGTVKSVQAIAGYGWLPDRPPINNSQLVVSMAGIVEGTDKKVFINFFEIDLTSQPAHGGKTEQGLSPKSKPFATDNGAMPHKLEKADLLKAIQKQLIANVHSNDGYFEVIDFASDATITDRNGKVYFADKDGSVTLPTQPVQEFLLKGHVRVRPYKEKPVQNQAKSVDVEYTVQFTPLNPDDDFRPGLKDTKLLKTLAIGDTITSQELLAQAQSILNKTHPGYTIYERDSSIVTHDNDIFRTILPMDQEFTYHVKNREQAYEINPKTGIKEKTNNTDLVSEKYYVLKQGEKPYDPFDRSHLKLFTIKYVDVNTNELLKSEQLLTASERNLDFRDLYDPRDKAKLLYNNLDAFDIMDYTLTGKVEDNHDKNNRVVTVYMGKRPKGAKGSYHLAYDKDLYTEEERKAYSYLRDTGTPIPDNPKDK

[3] = test system: Streptococcus; test: GAS UMAA2166 growth inhibition – luminescence, BacTiterGlo, counter-screen for streptokinase expression inhibitor project, dose response (AID 1915); format: functional, organism-based;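 note: potency for reduction of bacterial viability or growth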
[4] = THP-1 cell cytotoxicity, dose response, cytotoxicity control for non-replicating M. tuberculosis project (AID 489025); format: functional
[5] = molecular target: T2, Short transient receptor potential channel 4 (Mus musculus, UniProt Q9QUQ5); test: block of DAMGO-driven TRPC4 calcium entry – cell-based, HEK293 TRPC4/mu-opioid, Fluo-4 calcium, dose response (AID 434942); format: functional;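 note: potency of inhibitors blocking the TRPC4 calcium response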
T2 sequence (Q9QUQ5 whole entry): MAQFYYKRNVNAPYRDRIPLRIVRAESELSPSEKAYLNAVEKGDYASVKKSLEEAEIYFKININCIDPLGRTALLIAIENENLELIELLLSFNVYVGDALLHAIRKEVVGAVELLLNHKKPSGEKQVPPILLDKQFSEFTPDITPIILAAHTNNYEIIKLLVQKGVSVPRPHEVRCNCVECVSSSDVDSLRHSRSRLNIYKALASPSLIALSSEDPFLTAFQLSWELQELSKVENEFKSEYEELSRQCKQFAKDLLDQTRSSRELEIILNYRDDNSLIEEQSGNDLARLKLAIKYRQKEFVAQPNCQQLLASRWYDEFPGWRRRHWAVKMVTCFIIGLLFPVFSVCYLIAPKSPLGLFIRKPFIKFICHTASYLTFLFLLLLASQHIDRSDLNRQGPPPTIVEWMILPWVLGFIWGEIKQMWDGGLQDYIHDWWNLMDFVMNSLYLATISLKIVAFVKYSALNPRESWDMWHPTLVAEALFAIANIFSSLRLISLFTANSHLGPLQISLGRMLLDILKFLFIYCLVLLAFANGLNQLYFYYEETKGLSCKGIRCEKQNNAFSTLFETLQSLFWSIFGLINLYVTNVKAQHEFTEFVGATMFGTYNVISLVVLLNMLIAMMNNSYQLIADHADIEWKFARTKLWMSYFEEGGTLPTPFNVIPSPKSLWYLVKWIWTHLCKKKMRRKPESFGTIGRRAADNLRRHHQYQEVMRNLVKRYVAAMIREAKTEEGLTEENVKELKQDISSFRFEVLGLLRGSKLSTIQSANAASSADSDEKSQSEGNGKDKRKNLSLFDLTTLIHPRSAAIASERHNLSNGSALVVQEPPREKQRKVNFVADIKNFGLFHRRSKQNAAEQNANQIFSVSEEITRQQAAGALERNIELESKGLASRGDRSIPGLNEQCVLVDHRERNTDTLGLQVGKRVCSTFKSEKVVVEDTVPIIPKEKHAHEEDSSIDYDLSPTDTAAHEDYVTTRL

[6] = Vero E6 cell cytotoxicity, dose response, cytotoxicity control for non-replicating M. tuberculosis project, secondary assay (AID 492998); format: functional, VeroE6; conditions: Vero C1008
[7] = cells; format: functional
[8] = molecular target: Photoreceptor-specific nuclear receptor (Homo sapiens, UniProt Q9Y5X4); format: functional;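 note: potency for compounds that break the NR2E3 corepressor complex and count as activators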
[9] = molecular target: Peroxisome proliferator-activated receptor gamma/Nuclear receptor corepressor 2 (Homo sapiens, UniProt P37231+Q9Y618); format: functional
[10] = molecular target: T2, Short transient receptor potential channel 4; test: calcium entry via TRPC4 opening agents – cell-based, HEK293 TRPC4/mu-opioid, Fluo-4 calcium, dose response (AID 434937); format: functional
[11] = molecular target: T3, Bcl-2-like protein 10 (Homo sapiens, UniProt Q9HD36); test: Bcl-B/TR3 peptide binding disruption – biochemical, fluorescence polarization, FITC-TR3 peptide, selectivity assay for Bfl-1 inhibitor project, primary screen (AID 748);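 note: fluorescence polarization from a fluorescein-labelled TR3 peptide binding purified Bcl-B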
T3 sequence (Q9HD36 whole entry): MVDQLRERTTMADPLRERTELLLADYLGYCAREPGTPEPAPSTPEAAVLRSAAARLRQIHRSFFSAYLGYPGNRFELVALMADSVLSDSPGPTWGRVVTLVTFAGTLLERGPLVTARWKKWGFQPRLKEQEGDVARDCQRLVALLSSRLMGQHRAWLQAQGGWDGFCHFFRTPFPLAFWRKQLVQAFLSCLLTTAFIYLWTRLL

[12] = A cytotoxicity screen of small molecule inhibitors of the PhoP region in Salmonella typhi identified in the primary screen. [Related pubchem assays: 1850, 1864, 1985 ]; format: functional
[13] = molecular target: Induced myeloid leukemia cell differentiation protein Mcl-1 (Homo sapiens, UniProt Q07820); format: functional
[14] = molecular target: Peroxisome proliferator-activated receptor gamma/Nuclear receptor coactivator 1 (Homo sapiens, UniProt P37231); test: TR-FRET dose response biochemical High Throughput Screening assay for agonists of the steroid receptor coactivator 1 (SRC-1) recruitment by the peroxisome proliferator-activated receptor gamma (PPAR gamma): non-selective agonists. [Related pubchem assays (depositor defined):AID1300, AID1808, AID504735, AID631]; format: protein assay
[15] = molecular target: Peroxisome proliferator-activated receptor gamma/Nuclear receptor coactivator 3 (Homo sapiens, UniProt P37231); test: TR-FRET dose response biochemical High Throughput Screening assay for agonists of the steroid receptor coactivator 3 (SRC-3) recruitment by the peroxisome proliferator-activated receptor gamma (PPAR gamma): non-selective agonists. [Related pubchem assays: 1301 (Confirmation screen.), 1048 (Primary screen.)]; format: functional
[16] = molecular target: Peroxisome proliferator-activated receptor gamma/Nuclear receptor coactivator 2 (Homo sapiens, UniProt P37231); test: TR-FRET dose response biochemical High Throughput Screening assay for agonists of the steroid receptor coactivator 2 (SRC-2) recruitment by the peroxisome proliferator-activated receptor gamma (PPAR gamma): non-selective agonists. [Related pubchem assays: 1297, 1032 ]; format: functional
[17] = molecular target: Eukaryotic translation initiation factor 4H (Homo sapiens, UniProt Q15056); test: eIF4H binding inhibition – biochemical, uHTS, fluorescence polarization, translation initiation inhibitor project, primary screen (AID 2012)
[18] = molecular target: Polyadenylate-binding protein 1 (Homo sapiens, UniProt P11940); test: blockers of PABP interaction with poly(A) – biochemical, fluorescence polarization, […] (AID 2014)
[19] = molecular target: T4, Estrogen receptor (Homo sapiens, UniProt P03372);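 note: potency for inhibiting coactivator peptide recruitment to the receptor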
T4 sequence (P03372 whole entry): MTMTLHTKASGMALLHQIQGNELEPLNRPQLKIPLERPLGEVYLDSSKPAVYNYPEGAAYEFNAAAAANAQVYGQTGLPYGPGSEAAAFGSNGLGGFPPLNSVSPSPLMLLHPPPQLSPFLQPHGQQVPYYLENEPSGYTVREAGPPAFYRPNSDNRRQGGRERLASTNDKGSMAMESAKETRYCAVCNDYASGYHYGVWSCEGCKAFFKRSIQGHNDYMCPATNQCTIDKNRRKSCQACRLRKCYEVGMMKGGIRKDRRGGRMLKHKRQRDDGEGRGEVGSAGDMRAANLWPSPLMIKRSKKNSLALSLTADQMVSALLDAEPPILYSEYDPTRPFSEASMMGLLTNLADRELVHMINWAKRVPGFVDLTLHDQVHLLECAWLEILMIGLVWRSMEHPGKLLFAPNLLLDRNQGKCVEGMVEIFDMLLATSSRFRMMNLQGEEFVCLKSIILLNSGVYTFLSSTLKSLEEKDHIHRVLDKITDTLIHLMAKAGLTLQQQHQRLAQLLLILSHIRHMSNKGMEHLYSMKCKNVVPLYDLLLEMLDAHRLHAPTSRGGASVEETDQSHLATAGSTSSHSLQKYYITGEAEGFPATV

[20] = microbe, parasite or virus in culture; format: functional; conditions: Mycobacterium tuberculosis
[21] = molecular target: Beta-galactosidase (Escherichia coli, UniProt Q8VNN2); test: detection-enzyme interference by beta-gal modulators – biochemical, E. coli enzyme, set 3, artefact control for CCR6 antagonist project, dose response (AID 504712); format: functional
[22] = molecular target: Heat shock protein HSP 90-alpha (Homo sapiens, UniProt P07900); format: functional, organism-based
[23] = molecular target: T5, Phosphomannomutase 2 (Homo sapiens, UniProt O15305); test: Counter screen SAR assay for PMM2 inhibitors via a fluorescence intensity assay. [Related pubchem assays (depositor defined):AID1545, AID1574]
T5 sequence (O15305 whole entry): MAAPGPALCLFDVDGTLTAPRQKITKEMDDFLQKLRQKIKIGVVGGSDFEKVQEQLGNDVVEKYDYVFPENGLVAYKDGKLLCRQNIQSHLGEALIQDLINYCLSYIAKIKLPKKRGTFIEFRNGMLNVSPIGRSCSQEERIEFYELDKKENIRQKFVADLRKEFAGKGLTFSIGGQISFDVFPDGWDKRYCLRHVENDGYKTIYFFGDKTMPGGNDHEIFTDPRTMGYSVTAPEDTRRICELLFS

[24] = molecular target: T6, Mannose-6-phosphate isomerase (Homo sapiens, UniProt P34949); test: MPI enzyme activity inhibition – biochemical, fluorescence intensity, coupled assay, primary screen (AID 1209)
T6 sequence (P34949 whole entry): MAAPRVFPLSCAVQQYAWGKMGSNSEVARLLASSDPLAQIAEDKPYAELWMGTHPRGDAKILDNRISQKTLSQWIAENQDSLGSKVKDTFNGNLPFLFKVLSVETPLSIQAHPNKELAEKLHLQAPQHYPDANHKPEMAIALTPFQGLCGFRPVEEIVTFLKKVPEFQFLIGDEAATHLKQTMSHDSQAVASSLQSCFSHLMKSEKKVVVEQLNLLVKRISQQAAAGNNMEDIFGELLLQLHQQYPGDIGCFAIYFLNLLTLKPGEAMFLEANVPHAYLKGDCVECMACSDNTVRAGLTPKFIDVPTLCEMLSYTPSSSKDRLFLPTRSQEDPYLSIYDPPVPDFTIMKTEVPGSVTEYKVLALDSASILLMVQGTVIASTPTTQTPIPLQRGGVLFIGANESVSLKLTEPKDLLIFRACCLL

Chain of Photoreceptor-specific nuclear receptor (Q9Y5X4 whole entry): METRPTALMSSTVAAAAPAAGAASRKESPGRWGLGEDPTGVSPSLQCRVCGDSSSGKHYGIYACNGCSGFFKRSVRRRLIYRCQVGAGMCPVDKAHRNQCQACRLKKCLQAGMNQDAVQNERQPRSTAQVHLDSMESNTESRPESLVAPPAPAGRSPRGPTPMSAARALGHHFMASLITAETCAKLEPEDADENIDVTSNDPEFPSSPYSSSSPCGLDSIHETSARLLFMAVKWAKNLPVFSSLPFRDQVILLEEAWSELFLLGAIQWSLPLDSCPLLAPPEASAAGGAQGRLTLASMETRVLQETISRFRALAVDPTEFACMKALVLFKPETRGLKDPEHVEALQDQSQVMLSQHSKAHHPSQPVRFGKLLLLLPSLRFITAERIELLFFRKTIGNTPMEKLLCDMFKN
Chain of Peroxisome proliferator-activated receptor gamma/Nuclear receptor corepressor 2 (P37231 whole entry): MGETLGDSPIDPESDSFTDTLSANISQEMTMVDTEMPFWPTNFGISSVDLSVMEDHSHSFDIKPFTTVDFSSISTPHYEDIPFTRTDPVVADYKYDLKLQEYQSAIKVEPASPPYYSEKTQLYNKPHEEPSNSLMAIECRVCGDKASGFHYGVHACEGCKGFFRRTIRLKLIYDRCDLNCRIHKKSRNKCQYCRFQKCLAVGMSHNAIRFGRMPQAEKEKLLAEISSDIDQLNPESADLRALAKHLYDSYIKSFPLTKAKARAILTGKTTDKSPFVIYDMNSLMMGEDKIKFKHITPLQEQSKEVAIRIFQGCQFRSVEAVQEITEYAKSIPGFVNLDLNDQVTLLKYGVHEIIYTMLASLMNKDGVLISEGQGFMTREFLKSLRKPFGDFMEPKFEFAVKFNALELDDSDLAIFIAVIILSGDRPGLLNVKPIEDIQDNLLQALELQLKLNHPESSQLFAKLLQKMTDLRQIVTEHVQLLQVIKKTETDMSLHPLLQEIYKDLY
Chain of Peroxisome proliferator-activated receptor gamma/Nuclear receptor corepressor 2 (Q9Y618 whole entry): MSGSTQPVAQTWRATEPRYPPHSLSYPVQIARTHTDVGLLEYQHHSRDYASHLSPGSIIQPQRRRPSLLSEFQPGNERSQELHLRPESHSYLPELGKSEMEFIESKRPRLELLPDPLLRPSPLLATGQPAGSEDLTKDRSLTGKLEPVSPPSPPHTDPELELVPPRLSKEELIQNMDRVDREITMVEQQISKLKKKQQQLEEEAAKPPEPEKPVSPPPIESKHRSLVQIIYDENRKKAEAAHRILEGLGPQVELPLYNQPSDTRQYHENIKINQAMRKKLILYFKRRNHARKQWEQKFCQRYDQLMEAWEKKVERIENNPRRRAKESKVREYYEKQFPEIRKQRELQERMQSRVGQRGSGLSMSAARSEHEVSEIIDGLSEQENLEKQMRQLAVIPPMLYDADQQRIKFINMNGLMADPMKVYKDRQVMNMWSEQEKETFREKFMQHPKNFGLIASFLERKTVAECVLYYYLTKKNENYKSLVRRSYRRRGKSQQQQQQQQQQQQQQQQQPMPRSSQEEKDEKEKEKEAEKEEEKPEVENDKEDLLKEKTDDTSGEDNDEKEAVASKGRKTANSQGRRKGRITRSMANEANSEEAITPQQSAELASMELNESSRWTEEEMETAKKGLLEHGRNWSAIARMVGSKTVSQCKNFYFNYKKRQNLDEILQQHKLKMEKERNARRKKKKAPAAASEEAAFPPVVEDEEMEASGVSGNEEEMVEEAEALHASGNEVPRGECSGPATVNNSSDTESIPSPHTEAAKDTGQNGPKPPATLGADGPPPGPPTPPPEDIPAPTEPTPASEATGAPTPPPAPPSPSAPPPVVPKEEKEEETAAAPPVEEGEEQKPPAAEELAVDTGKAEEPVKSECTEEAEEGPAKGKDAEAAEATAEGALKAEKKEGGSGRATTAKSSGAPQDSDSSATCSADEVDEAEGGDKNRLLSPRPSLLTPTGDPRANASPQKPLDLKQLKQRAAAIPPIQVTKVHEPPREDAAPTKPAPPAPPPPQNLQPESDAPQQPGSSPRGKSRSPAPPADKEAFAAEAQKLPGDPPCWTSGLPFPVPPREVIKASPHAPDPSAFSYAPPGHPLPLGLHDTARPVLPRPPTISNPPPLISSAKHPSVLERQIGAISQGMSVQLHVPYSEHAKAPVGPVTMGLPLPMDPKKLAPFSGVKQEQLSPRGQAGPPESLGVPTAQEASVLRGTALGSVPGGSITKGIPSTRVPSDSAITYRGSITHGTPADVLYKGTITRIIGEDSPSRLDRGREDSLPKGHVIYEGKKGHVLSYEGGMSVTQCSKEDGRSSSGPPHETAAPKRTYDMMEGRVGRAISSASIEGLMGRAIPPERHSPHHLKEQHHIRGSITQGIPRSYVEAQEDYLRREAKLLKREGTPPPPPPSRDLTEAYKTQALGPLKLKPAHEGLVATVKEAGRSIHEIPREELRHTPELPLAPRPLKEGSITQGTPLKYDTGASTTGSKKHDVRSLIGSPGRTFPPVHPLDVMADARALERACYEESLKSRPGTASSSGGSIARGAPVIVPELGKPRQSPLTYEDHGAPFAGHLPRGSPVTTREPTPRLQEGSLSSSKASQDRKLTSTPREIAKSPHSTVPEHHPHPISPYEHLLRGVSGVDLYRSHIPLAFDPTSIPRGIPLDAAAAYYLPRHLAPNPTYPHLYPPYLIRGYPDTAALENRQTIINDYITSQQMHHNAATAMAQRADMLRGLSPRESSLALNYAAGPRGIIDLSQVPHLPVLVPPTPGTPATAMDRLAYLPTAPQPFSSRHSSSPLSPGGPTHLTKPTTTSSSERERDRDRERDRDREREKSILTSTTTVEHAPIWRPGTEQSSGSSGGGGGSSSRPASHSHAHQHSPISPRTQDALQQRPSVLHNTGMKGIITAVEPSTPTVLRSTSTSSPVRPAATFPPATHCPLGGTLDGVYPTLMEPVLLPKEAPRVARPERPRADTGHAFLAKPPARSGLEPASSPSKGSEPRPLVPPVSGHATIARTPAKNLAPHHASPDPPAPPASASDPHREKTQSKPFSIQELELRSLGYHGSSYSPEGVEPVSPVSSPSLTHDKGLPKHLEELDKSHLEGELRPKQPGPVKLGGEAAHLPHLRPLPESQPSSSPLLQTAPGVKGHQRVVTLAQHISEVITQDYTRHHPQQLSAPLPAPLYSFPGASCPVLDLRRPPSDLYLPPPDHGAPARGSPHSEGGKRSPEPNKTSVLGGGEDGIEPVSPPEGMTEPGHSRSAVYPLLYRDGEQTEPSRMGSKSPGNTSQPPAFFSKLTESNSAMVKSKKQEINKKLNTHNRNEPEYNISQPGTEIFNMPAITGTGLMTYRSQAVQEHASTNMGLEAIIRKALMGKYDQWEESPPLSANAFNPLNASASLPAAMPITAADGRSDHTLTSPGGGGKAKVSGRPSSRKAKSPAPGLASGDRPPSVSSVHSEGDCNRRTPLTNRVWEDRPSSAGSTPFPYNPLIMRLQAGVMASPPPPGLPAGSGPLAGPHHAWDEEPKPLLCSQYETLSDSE
Chain of Polyadenylate-binding protein 1 (P11940 whole entry): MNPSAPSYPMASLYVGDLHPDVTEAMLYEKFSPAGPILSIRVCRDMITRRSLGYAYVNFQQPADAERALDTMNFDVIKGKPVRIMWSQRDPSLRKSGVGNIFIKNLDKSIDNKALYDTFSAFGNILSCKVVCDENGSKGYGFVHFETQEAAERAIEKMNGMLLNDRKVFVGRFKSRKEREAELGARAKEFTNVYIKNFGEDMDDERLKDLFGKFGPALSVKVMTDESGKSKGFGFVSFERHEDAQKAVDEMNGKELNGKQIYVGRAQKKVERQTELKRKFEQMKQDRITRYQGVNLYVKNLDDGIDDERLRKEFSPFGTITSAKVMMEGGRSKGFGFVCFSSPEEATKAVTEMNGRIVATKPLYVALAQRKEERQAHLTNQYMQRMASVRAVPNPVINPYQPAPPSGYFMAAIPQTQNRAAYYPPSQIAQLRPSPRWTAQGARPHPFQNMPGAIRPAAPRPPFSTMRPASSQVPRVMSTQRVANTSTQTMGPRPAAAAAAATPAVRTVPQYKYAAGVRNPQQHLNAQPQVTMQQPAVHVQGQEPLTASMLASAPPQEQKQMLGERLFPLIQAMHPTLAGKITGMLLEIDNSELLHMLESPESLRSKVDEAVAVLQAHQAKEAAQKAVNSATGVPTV
Chain of Induced myeloid leukemia cell differentiation protein Mcl-1 (Q07820 whole entry): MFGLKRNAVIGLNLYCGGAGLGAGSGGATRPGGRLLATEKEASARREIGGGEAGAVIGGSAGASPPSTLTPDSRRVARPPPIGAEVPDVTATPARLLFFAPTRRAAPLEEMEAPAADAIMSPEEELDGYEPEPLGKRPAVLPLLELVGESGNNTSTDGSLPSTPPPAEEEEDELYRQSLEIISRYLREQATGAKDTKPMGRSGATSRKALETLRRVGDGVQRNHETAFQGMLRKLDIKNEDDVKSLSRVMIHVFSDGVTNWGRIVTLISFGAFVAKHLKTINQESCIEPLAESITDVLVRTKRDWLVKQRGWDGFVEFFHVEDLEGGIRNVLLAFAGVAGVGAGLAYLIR

Cc1ccc(C(=O)Nc2nnc(C3=COCCO3)o2)cc1C
EC50 [1]: 5.17 µM (active)
EC50 [2]: > 150 µM (not active)
EC50 [3]: 15.5 µM (active)
CC50 [4]: > 40 µM (active)
EC50 [5]: 0.421 µM (active)
CC50 [6]: > 20 µM (active)
IC50 [7]: 2.03 µM (active)

COc1ccc(C(=O)NNC(=O)C(Cc2ccc(O)cc2)NC(=O)c2ccccc2NC(=O)c2ccc(OC)cc2)cc1 (configuration not stated)
IC50 [8]: > 39.8 µM (not active)
IC50 [9]: > 39.8 µM (not active)

CCN1CCN(c2ccc(S(=O)(=O)N3CCOCC3)cc2NC(=O)c2ccccc2SC)CC1
EC50 [10]: 0.421 µM (active)

COc1cc2ccccc2cc1C(=O)NCC(c1cccs1)N(C)C (configuration not stated)
EC50 [10]: 0.944 µM (active)

Cc1cc(C)c(NC(=O)CN(c2ccccc2)S(=O)(=O)N(C)C)c(C)c1
IC50 [11]: 69.2 µM (inactive)

Cc1cc(NS(=O)(=O)c2ccc(Nc3nc(-c4sc(NC(=O)c5ccccc5)nc4C)cs3)cc2)no1
EC50 [12]: > 50 µM (active)
IC50 [13]: 2.46 µM (active)

CN(C)CCCN1C(=O)C(O)=C(C(=O)c2cc3ccccc3o2)C1c1ccccc1 (configuration not stated)
IC50 [8]: > 39.8 µM (not active)
EC50 [14]: 6.07 µM (active)
EC50 [15]: > 79.4 µM (not active)
EC50 [16]: 4.26 µM (active)
IC50 [9]: 5.04 µM (active)

O=C(NCc1ccco1)C1c2ccccc2Oc2ccccc21
IC50 [17]: 15.7 µM (active)
IC50 [18]: 71.3 µM (active)

Cc1cccc2cc(C(c3nnnn3C(C)(C)C)N(Cc3ccco3)CC3CCCO3)c(=O)[nH]c12 (configuration not stated)
IC50 [11]: > 100 µM (inactive)
IC50 [19]: 13.3 µM (active)

Cc1ccc(-n2c(=S)[nH]c3c(oc4ccccc43)c2=O)cc1C
IC50 [8]: 4.11 µM (active)
IC50 [9]: 7.61 µM (active)

Cc1cc(CC(C)C)n(-c2nc3ccccc3c(=O)n2OCC(N)=O)n1
CC50 [20]: > 40 µM (active)
CC50 [4]: > 40 µM (active)
CC50 [6]: > 20 µM (active)
IC50 [7]: 8.85 µM (active)

COc1cccc2cc(-c3cc(=O)oc4ccc(O)cc34)oc12
IC50 [17]: 43.1 µM (active)
IC50 [18]: > 100 µM (inactive)

NC(=O)C1CCCN(CCc2ccccc2)C1 (configuration not stated)
EC50 [10]: 0.06 µM (active)

Cc1cc(C)cc(N2C(=O)C=CC2=O)c1
IC50 [21]: > 66.6 µM (inactive)
AC50 [22]: 0.499 µM (active)

Cc1ccc(C)c(-n2[nH]c3ccccc3c2=O)c1
IC50 [23]: > 100 µM (inactive)

C(=N/Nc1nccs1)/c1cccnc1
EC50 [12]: > 50 µM (active)

Cn1c(=O)[nH]c(=O)c2c1nc(Br)n2C/C=N/Nc1ccccc1
IC50 [24]: > 50 µM (not active)

— ChEMBL document CHEMBL1201862, “PubChem BioAssay data set” (2004)
